Results reported in patent EP4603105A1, “PHARMACEUTICAL COMPOSITION CONTAINING CYCLIC COMPOUND HAVING SELECTIVE KRAS INHIBITORY EFFECT AGAINST HRAS AND NRAS” (CHUGAI SEIYAKU KABUSHIKI KAISHA, priority 2022, dated 2024).
Where a SMILES comes first, the peptide text is derived from it. Bridges are numbered along the chain shown (N, C = ends). [ ]: non-standard residue; d: D form. The star is where a group is joined. hPhe(3-Cl-4-CF3) = N[C@@H](CCc1ccc(C(F)(F)F)c(Cl)c1)C(=O)O; NPrPhe(4-CF3) = CCCN[C@@H](Cc1ccc(C(F)(F)F)cc1)C(=O)O; Abu(4,4,4-F3) = N[C@@H](CC(F)(F)F)C(=O)O; NMeGly(cPent) = CN[C@H](C(=O)O)C1CCCC1; NMeD = CN[C@@H](CC(=O)O)C(=O)O; NMeL = CN[C@@H](CC(C)C)C(=O)O; Morpholide = C1CN(*)CCO1; Ac5c = NC1(C(=O)O)CCCC1; Aze = O=C(O)[C@@H]1CCN1; Sar = CNCC(=O)O

Experiments:
HRAS wild-type protein = HRAS wild-type protein (Homo sapiens, UniProt P01112); experiment: Binding to HRAS by surface plasmon resonance (SPR), KD and KD ratio to KRAS
HRAS wild-type protein, sequence (P01112 whole entry): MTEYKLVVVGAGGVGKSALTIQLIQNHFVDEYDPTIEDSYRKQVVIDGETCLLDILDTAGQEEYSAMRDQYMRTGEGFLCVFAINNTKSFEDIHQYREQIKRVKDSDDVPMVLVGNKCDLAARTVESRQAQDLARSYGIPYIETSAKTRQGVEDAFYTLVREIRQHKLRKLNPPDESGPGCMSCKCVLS
Summary of the method: (§1)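 Single-cycle kinetics on GDP-loaded biotin-Avi RAS captured to ~100–300 RU; 75 s ascending injections, 100 µL/min, 30°C. HBS pH 7.4 + 10 mM MgCl2/10 µM GDP/4% DMSO. 1:1 fit, KD.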

[1] = biological target: GDP-bound NRAS wild-type protein (Homo sapiens, UniProt P01111); experiment: Binding to NRAS by surface plasmon resonance (SPR), KD and KD ratio to KRAS
GDP-bound NRAS wild-type protein, sequence (P01111 whole entry): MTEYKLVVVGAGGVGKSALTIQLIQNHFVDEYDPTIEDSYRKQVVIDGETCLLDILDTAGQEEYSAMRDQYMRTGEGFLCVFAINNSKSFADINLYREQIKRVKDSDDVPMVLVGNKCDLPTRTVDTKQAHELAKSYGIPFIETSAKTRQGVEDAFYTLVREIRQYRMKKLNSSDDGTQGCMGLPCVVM
Summary of the method: as §1

[2] = tested on: human lung cancer strain NCI-H441; assay type: cell-based
Summary of the method: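 Proliferation was scored by […] measured after the reagent was added to cultures kept at 37°C in 5% carbon dioxide.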

[3] = biological target: GDP-bound KRAS wild-type protein (Homo sapiens, UniProt P01116); experiment: Binding to KRAS by surface plasmon resonance (SPR), dissociation constant KD
GDP-bound KRAS wild-type protein, sequence (P01116 1-188 isoform P01116-2): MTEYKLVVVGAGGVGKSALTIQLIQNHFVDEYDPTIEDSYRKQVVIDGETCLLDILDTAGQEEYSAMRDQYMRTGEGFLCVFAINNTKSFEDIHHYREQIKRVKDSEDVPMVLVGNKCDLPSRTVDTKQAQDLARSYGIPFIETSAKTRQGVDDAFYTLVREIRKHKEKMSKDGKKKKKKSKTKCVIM
Summary of the method: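 Affinity is measured by surface plasmon resonance at 30°C against captured, GDP-loaded RAS carrying a biotinylated Avi tag. Compounds are titrated by single-cycle kinetics, and KD comes from a 1:1 fit.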

[4] = ratio of KD for HRAS wild-type protein to KD for KRAS
[5] = ratio of KD for GDP-bound NRAS wild-type protein to KD for KRAS
[6] = ratio of the KD value with respect to HRAS wild-type protein to the KD value with respect to KRAS
[7] = ratio of the KD value with respect to GDP-bound NRAS wild-type protein to the KD value with respect to KRAS
[8] = Single Cycle Kinetics, 1:1 binding model

SMILES	HRAS /KRAS (HRAS wild-type protein; [4])	NRAS /KRAS [1, 5]	IC50 [2] [nM]	Kd ([3]; 1:1 binding model) [nM]	Kd ([3]; Single Cycle Kinetics) [nM]	HRAS /KRAS (HRAS wild-type protein; [6])	NRAS /KRAS [1, 7]	Kd [3, 8] [nM]
CCC(CC)[C@H]1C(=O)N(C)[C@H](C(=O)N(C)C)CC(=O)N(C)[C@@H](COC)C(=O)N[C@@H]([C@@H](C)CC)C(=O)N(C)CC(=O)N(C)[C@H]2C/C=C\CCN(C2=O)[C@@H](Cc2ccc(C)cc2)C(=O)N(C)CC(=O)N[C@@H](CCc2ccc(C(F)(F)F)c(Cl)c2)C(=O)N2CCCC[C@H]2C(=O)NC2(CC(C)(C)C2)C(=O)N1C [PP2931]	A (a compound having 10 or more and less than 20 is denoted as A)	A (a compound having 10 or more and less than 20 is denoted as A)	65.5	1.9	–	–	–	–
CCCN1C(=O)CN(C)C(=O)[C@@H]2CCN2C(=O)[C@H](CC(F)(F)F)NC(=O)[C@H](CC(C)C)N(C)C(=O)C[C@@H](C(=O)N2CCOCC2)N(C)C(=O)[C@H](C2CCCC2)N(C)C(=O)C2(CCCC2)NC(=O)[C@@H]2CCCN2C(=O)[C@H](CCc2ccc(C(F)(F)F)c(Cl)c2)NC(=O)CN(C)C(=O)[C@@H]1Cc1ccc(C(F)(F)F)cc1 [PP0304] ([NMeL][Abu(4,4,4-F3)][Aze][Sar][NPrPhe(4-CF3)][Sar][hPhe(3-Cl-4-CF3)]P[Ac5c][NMeGly(cPent)][NMeD]-Morpholide; lactam N-11)	B (a compound having 3 or more and less than 10 is denoted as B)	B (a compound having 3 or more and less than 10 is denoted as B)	112	1.9	–	–	–	–
C#CC[C@H]1C(=O)N[C@@H]([C@@H](C)CC)C(=O)N(C)CC(=O)N(C)[C@H]2C/C=C\CCN(C2=O)[C@@H](Cc2ccc(C(F)(F)F)cc2)C(=O)N(C)CC(=O)N[C@@H](CCc2ccc(C(F)(F)F)c(OC)c2)C(=O)N2C[C@H](F)C[C@H]2C(=O)NC2(CC(C)(C)C2)C(=O)N(C)[C@@H](CCC=C)C(=O)N(C)[C@H](C(=O)N2CCCC2)CC(=O)N1C [PP3132]	A (a compound having 10 or more and less than 20 is denoted as A)	A (a compound having 10 or more and less than 20 is denoted as A)	245	3.5	–	–	–	–
CCO[C@@H]1C[C@H]2C(=O)NC3(CCC3)C(=O)N(C)[C@@H](C3CCCC3)C(=O)N(C)[C@H](C(=O)N(C)C)CC(=O)N(C)[C@@H](CC(C)C)C(=O)N[C@@H]([C@@H](C)CC)C(=O)N(C)CC(=O)N(C)[C@H]3CCCCCN(C3=O)[C@@H](Cc3ccc(F)cc3)C(=O)N(C)CC(=O)N[C@@H](CCc3ccc(C(F)(F)F)c(Cl)c3)C(=O)N2C1 [PP0972]	B (a compound having 3 or more and less than 10 is denoted as B)	B (a compound having 3 or more and less than 10 is denoted as B)	15.8	–	0.15	–	–	–
CCO[C@@H]1C[C@H]2C(=O)NC3(CC(C)(C)C3)C(=O)N(C)[C@@H](C3CCCC3)C(=O)N(C)[C@H](C(=O)N(C)CC)CC(=O)N(C)[C@@H](CC(C)C)C(=O)N[C@@H]([C@@H](C)CC)C(=O)N(C)CC(=O)N(C)[C@H]3C/C=C\CCN(C3=O)[C@@H](Cc3ccc(C(F)F)cc3)C(=O)N(C)CC(=O)N[C@@H](CCc3cc(C)c(C(F)F)c(Cl)c3)C(=O)N2C1 [PP3146]	A (a compound having 10 or more and less than 20 is denoted as A)	A (a compound having 10 or more and less than 20 is denoted as A)	41.8	1.4	–	–	–	–
CC[C@H](C)[C@@H]1NC(=O)[C@H](COC)N(C)C(=O)C[C@@H](C(=O)N(C)CC)N(C)C(=O)[C@H](C2CCCC2)N(C)C(=O)C2(CC(C)(C)C2)NC(=O)[C@@H]2CC(F)(F)CN2C(=O)[C@H](CCc2ccc(C(F)(F)F)c(OC)c2)NC(=O)CN(C)C(=O)[C@H](Cc2ccc(C(F)(F)F)cc2)N2CC/C=C\C[C@@H](C2=O)N(C)C(=O)[C@@H]2CCN2C1=O [PP3136]	B (a compound having 3 or more and less than 10 is denoted as B)	B (a compound having 3 or more and less than 10 is denoted as B)	47	0.63	–	–	–	–
CCO[C@@H]1C[C@H]2C(=O)NC3(CCC3)C(=O)N(C)[C@@H](C3CCCC3)C(=O)N(C)[C@H](C(=O)N(C)CC)CC(=O)N(C)[C@H]3CCCCCc4ccc(cc4)C[C@@H](C(=O)N(C)CC(=O)N[C@@H](CCc4cc(F)c(C(F)(F)F)c(F)c4)C(=O)N2C1)N1CC/C=C\C[C@@H](C1=O)N(C)C(=O)CN(C)C(=O)[C@H]([C@@H](C)CC)NC3=O [PP2117]	–	–	28.9	–	–	A (a compound having 10 or more and less than 20 is denoted as A)	A (a compound having 10 or more and less than 20 is denoted as A)	0.17
CCO[C@@H]1C[C@H]2C(=O)NC3(CCC3)C(=O)N(C)[C@@H](C3CCCC3)C(=O)N(C)[C@H](C(=O)N(C)CC)CC(=O)N(C)[C@@H](CC3CCC3)C(=O)N[C@@H]([C@@H](C)CC)C(=O)N(C)CC(=O)N(C)[C@H]3C/C=C\CCN(C3=O)[C@@H](Cc3ccc(C(F)(F)F)cc3)C(=O)N(C)CC(=O)N[C@@H](CCc3ccc(Cl)c(Cl)c3)C(=O)N2C1 [PP2824]	A (a compound having 10 or more and less than 20 is denoted as A)	A (a compound having 10 or more and less than 20 is denoted as A)	23.4	0.44	–	–	–	–
CCCN(C)C(=O)[C@@H]1CC(=O)N(C)[C@@H](C2CCC2)C(=O)N[C@@H]([C@@H](C)CC)C(=O)N(C)CC(=O)N(C)[C@H]2C/C=C\CCN(C2=O)[C@@H](Cc2ccc(C(F)(F)F)cc2)C(=O)N(C)CC(=O)N[C@@H](CCc2ccc(C(F)(F)F)c(OC)c2)C(=O)N2C[C@H](OCC)C[C@H]2C(=O)NC2(CCC2)C(=O)N(C)[C@@H](C2CCCC2)C(=O)N1C [PP2023]	–	–	10.5	–	–	B (a compound having 3 or more and less than 10 is denoted as B)	A (a compound having 10 or more and less than 20 is denoted as A)	0.11
CCCOC[C@H]1C(=O)N[C@@H]([C@@H](C)CC)C(=O)N(C)CC(=O)N(C)[C@H]2C/C=C\CCN(C2=O)[C@@H](Cc2ccc(C(F)(F)F)cc2)C(=O)N(C)CC(=O)N[C@@H](CCc2ccc(C(F)(F)F)c(OC)c2)C(=O)N2C[C@H](OCC)C[C@H]2C(=O)NC2(CCC2)C(=O)N(C)[C@@H](C2CCCC2)C(=O)N(C)[C@H](C(=O)N(C)CCC)CC(=O)N1C [PP2017]	–	–	2.5	–	–	A (a compound having 10 or more and less than 20 is denoted as A)	A (a compound having 10 or more and less than 20 is denoted as A)	0.093
CCCOC[C@H]1C(=O)N[C@@H]([C@@H](C)CC)C(=O)N(C)CC(=O)N(C)[C@H]2C/C=C\CCN(C2=O)[C@@H](Cc2ccc(C)cc2)C(=O)N(C)CC(=O)N[C@@H](CCc2cc(F)c(C(F)(F)F)c(F)c2)C(=O)N2C[C@H](CCC)C[C@H]2C(=O)NC2(CC(C)(C)C2)C(=O)N(C)[C@@H](C2CCCC2)C(=O)N(C)[C@H](C(=O)N(C)C)CC(=O)N1C [PP2203]	–	–	20.5	–	–	A (a compound having 10 or more and less than 20 is denoted as A)	A (a compound having 10 or more and less than 20 is denoted as A)	0.34
